Data from patent US7118759B2 (priority 2001, dated 2006).
Where two headings read alike, the source gives them in different places.

What was measured:
Format in all cases: cell-based, Staphylococcus aureus
[1] = system: S. aureus (MN8); details: for Reduction of Toxin (%): vs methanol control
[2] = system: S. aureus FRI-1169
[3] = system: S. aureus FRI-1187

SMILES	TSST-1 produced when compared to the control [1]	ELISA: TSST-1 ng/OD unit ([1]; 2 μg/mL test compound, 24 hours)	Reduction of Toxin (%) ([1]; 2 μg/mL test compound)	TSST-1 produced when compared to the control [2]	ELISA: TSST-1 ng/OD unit ([2]; 0.5 μg/mL triclosan)	TSST-1 produced when compared to the control [3]	ELISA: TSST-1 ng/OD unit ([3]; 0.5 ug/mL triclosan)	Reduction of Toxin (%) ([1]; 0.01 μg/mL test compound)
Oc1c(Cl)cc(Cl)c(Cl)c1Cc1c(O)c(Cl)cc(Cl)c1Cl [Hexachlorophene, hexachlorophene]	significantly less TSST-1	330 ng/OD unit	68%	–	–	–	–	–
Oc1cc(Cl)ccc1Oc1ccc(Cl)cc1Cl [Triclosan, triclosan]	significantly less TSST-1	–	–	less TSST-1	40 ng/OD unit	less TSST-1	95 ng/OD unit	88%
